From patent US12378231B2, “Small molecules as monoacylglycerol lipase (MAGL) inhibitors, compositions and use thereof” (APOGEE PHARMACEUTICALS, INC., priority 2023, dated 2025)

Assays:
human recombinant FAAH = human recombinant FAAH (Homo sapiens (Human), UniProt O00519); assay: In vitro inhibition of human recombinant FAAH activity (Cayman FAAH inhibitor screening kit, AMC arachidonoyl amide hydrolysis); format: biochemical
From the text: In brief, FAAH hydrolyzes AMC arachidonoyl amide resulting in the release of the fluorescent product, while the inhibitor will inhibit the FAAH activity and thus reduce the fluorescent signal.

human recombinant MAGL = human recombinant MAGL (Homo sapiens (Human), UniProt Q99685); assay: In vitro inhibition of human recombinant MAGL activity (Cayman inhibitor screening kit, 4-nitrophenylacetate hydrolysis); format: biochemical; details: human recombinant MAGL; read-out: Inhibition on MAGL activity (IC50)
From the text: The inhibitory effect of the synthetic chemicals on activity of human recombinant MAGL was studied using commercial inhibitor screening kit (Cayman Chemical). […] The absorbance of the yellow product can be analyzed using the plate reader. […]

Sequence of human recombinant MAGL (Q99685 whole entry): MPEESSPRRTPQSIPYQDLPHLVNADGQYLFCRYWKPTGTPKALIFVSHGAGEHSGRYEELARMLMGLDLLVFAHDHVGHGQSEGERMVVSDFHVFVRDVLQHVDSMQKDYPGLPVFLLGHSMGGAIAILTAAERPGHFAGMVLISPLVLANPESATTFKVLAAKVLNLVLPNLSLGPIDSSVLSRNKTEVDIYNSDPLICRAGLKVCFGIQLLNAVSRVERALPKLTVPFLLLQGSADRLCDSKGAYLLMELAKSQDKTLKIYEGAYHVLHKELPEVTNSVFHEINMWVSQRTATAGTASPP
Sequence of human recombinant FAAH (O00519 whole entry): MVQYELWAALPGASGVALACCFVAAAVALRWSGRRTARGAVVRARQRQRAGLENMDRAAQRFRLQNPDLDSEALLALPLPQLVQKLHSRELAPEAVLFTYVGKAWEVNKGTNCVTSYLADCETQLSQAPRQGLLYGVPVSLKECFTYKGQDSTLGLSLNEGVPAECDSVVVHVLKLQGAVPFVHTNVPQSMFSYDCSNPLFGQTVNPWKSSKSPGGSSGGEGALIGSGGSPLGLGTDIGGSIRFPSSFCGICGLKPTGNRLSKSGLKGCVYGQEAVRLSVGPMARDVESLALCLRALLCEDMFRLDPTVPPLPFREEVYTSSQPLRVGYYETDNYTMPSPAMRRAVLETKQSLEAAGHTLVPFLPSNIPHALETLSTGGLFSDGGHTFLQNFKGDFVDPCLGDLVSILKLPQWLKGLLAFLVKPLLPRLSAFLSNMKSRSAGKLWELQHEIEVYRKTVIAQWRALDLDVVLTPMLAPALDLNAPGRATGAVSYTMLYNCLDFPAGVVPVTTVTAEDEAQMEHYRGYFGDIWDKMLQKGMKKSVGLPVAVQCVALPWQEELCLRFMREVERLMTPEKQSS

SMILES | IC50 (human recombinant FAAH) | IC50 (human recombinant MAGL)
N#Cc1ccc2c(c1)nnn2C(=O)N1CCC(N(c2ccc(F)cc2)c2ccc3c(c2)OCO3)CC1 [Example 64, 1-(4-(benzo[d][1,3]dioxol-5-yl(4-fluorophenyl)amino)piperidine-1-carbonyl)-1H-benzo[d][1,2,3]triazole-5-carbonitrile] | 10 to 100 nM | 1 to 10 nM
COc1ccc(N(c2ccc(F)cc2)C2CCN(C(=O)n3nnc4ccc(C#N)cc43)CC2)cc1 [Example 65, 1-(4-((4-fluorophenyl)(4-methoxyphenyl)amino)piperidine-1-carbonyl)-1H-benzo[d][1,2,3]triazole-6-carbonitrile] | 100 to 1000 nM | 1 to 10 nM
COc1ccc(N(c2ccc(F)cc2)C2CCN(C(=O)n3nnc4cc(C#N)ccc43)CC2)cc1 [Example 66, 1-(4-((4-fluorophenyl)(4-methoxyphenyl)amino)piperidine-1-carbonyl)-1H-benzo[d][1,2,3]triazole-5-carbonitrile] | 100 to 1000 nM | 1 to 10 nM
N#Cc1ccc2nnn(C(=O)N3CCC(N(c4ccc5c(c4)OCO5)c4ccc5c(c4)OCO5)CC3)c2c1 [Example 67, 1-(4-(bis(benzo[d][1,3]dioxol-5-yl)amino)piperidine-1-carbonyl)-1H-benzo[d][1,2,3]triazole-6-carbonitrile] | 100 to 1000 nM | 1 to 10 nM
N#Cc1ccc2c(c1)nnn2C(=O)N1CCC(N(c2ccc3c(c2)OCO3)c2ccc3c(c2)OCO3)CC1 [Example 68, 1-(4-(bis(benzo[d][1,3]dioxol-5-yl)amino)piperidine-1-carbonyl)-1H-benzo[d][1,2,3]triazole-5-carbonitrile] | 100 to 1000 nM | 1 to 10 nM
N#Cc1ccc2nnn(C(=O)N3CCC(N(c4ccc(C(F)(F)F)cc4)c4ccc5c(c4)OCO5)CC3)c2c1 [Example 69, 1-(4-(benzo[d][1,3]dioxol-5-yl(4-(trifluoromethyl)phenyl)amino)piperidine-1-carbonyl)-1H-benzo[d][1,2,3]triazole-6-carbonitrile] | 100 to 1000 nM | 1 to 10 nM
N#Cc1ccc2c(c1)nnn2C(=O)N1CCC(N(c2ccc(C(F)(F)F)cc2)c2ccc3c(c2)OCO3)CC1 [Example 70, 1-(4-(benzo[d][1,3]dioxol-5-yl(4-(trifluoromethyl)phenyl)amino)piperidine-1-carbonyl)-1H-benzo[d][1,2,3]triazole-5-carbonitrile] | 100 to 1000 nM | 1 to 10 nM
N#Cc1ncn(C(=O)N2CCC(N(c3ccc(C(F)(F)F)cc3)c3ccc4c(c3)OCO4)CC2)n1 [Example 71, 1-(4-(benzo[d][1,3]dioxol-5-yl(4-(trifluoromethyl)phenyl)amino)piperidine-1-carbonyl)-1H-1,2,4-triazole-3-carbonitrile] | 100 to 1000 nM | 1 to 10 nM
COc1ccc(N(c2ccc3c(c2)OCO3)C2CCN(C(=O)n3nnc4ccc(C#N)cc43)CC2)cc1 [Example 72, 1-(4-(benzo[d][1,3]dioxol-5-yl(4-methoxyphenyl)amino)piperidine-1-carbonyl)-1H-benzo[d][1,2,3]triazole-6-carbonitrile] | 100 to 1000 nM | 1 to 10 nM
COc1ccc(N(c2ccc3c(c2)OCO3)C2CCN(C(=O)n3nnc4cc(C#N)ccc43)CC2)cc1 [Example 73, 1-(4-(benzo[d][1,3]dioxol-5-yl(4-methoxyphenyl)amino)piperidine-1-carbonyl)-1H-benzo[d][1,2,3]triazole-5-carbonitrile] | 100 to 1000 nM | 1 to 10 nM
N#Cc1ccc2nnn(C(=O)N3CCC(N(c4cccnc4)c4ccc5c(c4)OCO5)CC3)c2c1 [Example 74, 1-(4-(benzo[d][1,3]dioxol-5-yl(pyridin-3-yl)amino)piperidine-1-carbonyl)-1H-benzo[d][1,2,3]triazole-6-carbonitrile] | 100 to 1000 nM | 1 to 10 nM
N#Cc1ccc2c(c1)nnn2C(=O)N1CCC(N(c2cccnc2)c2ccc3c(c2)OCO3)CC1 [Example 75, 1-(4-(benzo[d][1,3]dioxol-5-yl(pyridin-3-yl)amino)piperidine-1-carbonyl)-1H-benzo[d][1,2,3]triazole-5-carbonitrile] | 100 to 1000 nM | 1 to 10 nM
